In PubChem BioAssay (NCI) one finds TGI data, which are given here for 10 compounds.

Among the test systems are ACHN renal; CAKI-1 renal; HCT-116 colon; IGROV1 ovarian; K-562 leukemia; NCI-H23 lung; SF-268 CNS; SF-295 CNS; SN12C renal; SNB-19 CNS; SR leukemia; UACC-257 melanoma; UACC-62 melanoma; 786-0 renal; KM12 colon; T-47D breast.
Common to all, as to experiment: NCI tumour cell line growth inhibition, 48 h

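1) Cells in 96-well plates. 2) Compound, 48 h, 5 concentrations. 3) Linear interpolation between surrounding doses. 4) Unreached endpoint = highest concentration. At the TGI there is no net growth.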

For `COc1cc(C2c3cc4c(cc3OC3(O)COC(=O)C23)OCO4)cc(OC)c1OC` (centres undefined), the TGI with ACHN renal, in the test on CAKI-1 renal, in the test with HCT-116 colon, in the test with IGROV1 ovarian, with K-562 leukemia and with NCI-H23 lung was above 100 µM throughout. Besides, the TGI with SF-268 CNS was above 100 µM; in the test with SF-295 CNS, 74.5 µM; with SN12C renal, above 100 µM; in the test on SNB-19 CNS, above 100 µM; in the test with SR leukemia it was 59.1 µM; in the test on UACC-257 melanoma, above 100 µM. The same compound had a TGI in the test on UACC-62 melanoma above 100 µM.

As for `CCOC(=O)C1=C(OS(=O)(=O)C(F)(F)F)CCCC1`, the TGI with 786-0 renal, with ACHN renal, in the test with CAKI-1 renal, in the test on IGROV1 ovarian, in the test with K-562 leukemia and in the test with KM12 colon was above 100 µM each time. In addition, the TGI in the test with NCI-H23 lung, in the test on SF-268 CNS, in the test on SF-295 CNS, with SNB-19 CNS, in the test on SR leukemia and with T-47D breast was above 100 µM each time. For the same compound, the TGI in the test with UACC-257 melanoma and in the test on UACC-62 melanoma was above 100 µM throughout.

Regarding `C=CC1(c2ccc3ccccc3c2)OCC(CC)(CC)CO1`, the TGI came to 50.9 µM with 786-0 renal; 38.8 µM in the test with ACHN renal; 43.2 µM in the test with HCT-116 colon; 52.3 µM with IGROV1 ovarian; 48.1 µM in the test on K-562 leukemia; 40.6 µM with KM12 colon. Besides, the TGI in the test on NCI-H23 lung amounted to 49.3 µM; in the test on SF-268 CNS, 95.6 µM; in the test on SF-295 CNS, 65.2 µM; in the test on SN12C renal, 44.5 µM; in the test on SNB-19 CNS, 36.3 µM; with T-47D breast it was 52.2 µM. For the same compound, the TGI in the test on UACC-257 melanoma amounted to 64.2 µM; in the test with UACC-62 melanoma, 46 µM.

With `CCCCC(NC(=O)CC)C(=O)O` (centres undefined), the TGI with CAKI-1 renal, with HCT-116 colon, in the test on IGROV1 ovarian, with K-562 leukemia, in the test on KM12 colon and with NCI-H23 lung was above 100 µM throughout. Besides, the TGI in the test on SF-268 CNS, with SF-295 CNS, with SN12C renal, in the test with SNB-19 CNS, in the test on UACC-257 melanoma and with UACC-62 melanoma was above 100 µM in each case.

Take `CC1=C2C(=O)C3[C@@H](CCC4=CC(=O)CC[C@@]43C)C2CC[C@]12O[C@@H]1C[C@H](C)CN[C@H]1[C@H]2C` (some centres undefined): the TGI is above 100 µM with 786-0 renal; above 100 µM in the test with ACHN renal; above 100 µM with CAKI-1 renal; above 100 µM in the test with HCT-116 colon; above 100 µM with IGROV1 ovarian; 36.4 µM in the test with K-562 leukemia. For the same compound, the TGI with KM12 colon, in the test on NCI-H23 lung, with SF-268 CNS, with SF-295 CNS, with SN12C renal and with SNB-19 CNS was above 100 µM throughout. In addition, the TGI in the test on SR leukemia was 43.4 µM; in the test with UACC-257 melanoma, above 100 µM; with UACC-62 melanoma, 61 µM.

`C=C[C@@]1(C)CC2CC[C@]3(C)C(C)=CC(=O)CC3[C@]2(C)CC1O` (some centres undefined): the TGI in the test on 786-0 renal, in the test on ACHN renal, in the test on CAKI-1 renal, in the test with HCT-116 colon, with IGROV1 ovarian and with K-562 leukemia was above 100 µM each time. Also, the TGI with KM12 colon, in the test with NCI-H23 lung, with SF-268 CNS, in the test with SF-295 CNS, with SN12C renal and in the test with SNB-19 CNS was above 100 µM in each case. Moreover, the TGI with SR leukemia, with T-47D breast, in the test with UACC-257 melanoma and with UACC-62 melanoma was above 100 µM each time.

For the compound `Cc1ccc(S(=O)(=O)c2c(N)c3nccn3c3nc4ccccc4nc23)cc1`, the TGI in the test with 786-0 renal, in the test on ACHN renal, in the test with CAKI-1 renal, in the test with HCT-116 colon, with IGROV1 ovarian and in the test with K-562 leukemia was above 100 µM each time. In addition, the TGI in the test on KM12 colon, in the test on NCI-H23 lung, with SF-268 CNS, with SN12C renal, with SNB-19 CNS and in the test with SR leukemia was above 100 µM each time. The TGI with UACC-257 melanoma and with UACC-62 melanoma was above 100 µM in each case.

For `CSC(=NC1CC(n2cc(C)c(=O)[nH]c2=O)OC1CO)NC#N` (centres undefined), the TGI with 786-0 renal, with ACHN renal, in the test on CAKI-1 renal, with HCT-116 colon, in the test on IGROV1 ovarian and in the test on K-562 leukemia was above 100 µM each time. The TGI with KM12 colon, with NCI-H23 lung, in the test on SF-268 CNS, in the test on SF-295 CNS, with SN12C renal and in the test on SNB-19 CNS was above 100 µM each time. The TGI in the test on T-47D breast, in the test on UACC-257 melanoma and in the test on UACC-62 melanoma was above 100 µM throughout.

Take `Cc1c2ccccc2c(CO)c2cc(F)c3ccccc3c12`: the TGI was 58.2 µM in the test with ACHN renal; 79.4 µM in the test with CAKI-1 renal; 40.3 µM with HCT-116 colon; 63.7 µM in the test with IGROV1 ovarian; above 100 µM in the test on K-562 leukemia; 56.3 µM in the test on KM12 colon. The TGI with NCI-H23 lung was above 100 µM; in the test with SF-268 CNS, 71.2 µM; with SF-295 CNS it was 57.8 µM; with SN12C renal it was 33.3 µM; with SNB-19 CNS, above 100 µM; in the test with SR leukemia, 70.7 µM. In addition, the TGI in the test with UACC-257 melanoma and in the test with UACC-62 melanoma was above 100 µM in each case.

As to `Nc1ncnc2c1ncn2[C@@H]1C[C@H]1CO`, the TGI in the test with 786-0 renal, in the test with ACHN renal, in the test with HCT-116 colon, with K-562 leukemia, in the test on KM12 colon and with NCI-H23 lung was above 100 µM in each case. Besides, the TGI in the test with SF-295 CNS, in the test with SN12C renal, with SNB-19 CNS, in the test on SR leukemia, with T-47D breast and in the test on UACC-257 melanoma was above 100 µM throughout.
